In patent publication US20140073643A1, “TREATMENT OF JAK2-MEDIATED CONDITIONS” (YM BIOSCIENCES AUSTRALIA PTY LTD, priority 2010, published 2014):
Marks after values point to notes of the source that are not given here.

Key:
[1] = administered once a day; cited from earlier work
[2] = tested on: patients with high- or intermediate-risk primary myelofibrosis (PMF) and post-PV or post-essential thrombocythemia (ET) myelofibrosis; assay: Phase I/II clinical trial of CYT387: spleen response; format: in vivo, human
From the text: By “spleen response” is meant a reduction in the size of the patient's spleen as assessed by either palpation of a previously palpable spleen during physical exam or by diagnostic imaging. The IWG consensus criteria specifies that there be either a minimum 50% reduction in palpable splenomegaly (spleen enlargement) of a spleen that is at least 10 cm at baseline (prior to treatment) or of a spleen that is palpable at more than 5 cm at baseline becomes not palpable. However, smaller reductions are also considered to be within the term “spleen response”.
(§1) A clinical trial was designed to assess the safety, tolerability, and pharmacokinetic behavior of CYT387 in a Phase I dose-escalation study in patients with high- or intermediate-risk primary myelofibrosis (PMF) and post-PV or post-essential thrombocythemia (ET) myelofibrosis. The secondary objective was evaluation of CYT387 's benefit to myelofibrosis patients. CYT387 was administered orally (in a capsule without excipients) once daily in 28-day cycles. For patients achieving less than a complete remission after 3 cycles of treatment, escalation was permitted to the highest tolerated dose in the absence of disease progression or unacceptable toxicity. Once dose-limiting toxicity (DLT) was identified, a dose-confirmation cohort initiated treatment at the maximum tolerated dose (MTD) and/or a lower clinically effective dose.
(§2) Results were obtained for 36 subjects enrolled in the 120 patient Phase I/II trial for which recruitment is ongoing. Of these, 18 patients were from the dose escalation phase, and 18 patients were from the subsequent dose confirmation phase. Twenty subjects (56%) were red cell transfusion-dependent at study entry. Prior treatment included other JAK inhibitors in ten patients (nine and one subjects with INCB018424 and TG101348, respectively) and pomalidomide in nine patients. The median treatment duration at publication was 15 weeks (range 4-38).
Spleen Size Reduction: Twenty nine (97%) of the 30 evaluable subjects who had splenomegaly at baseline (median 20 cm; range 10-32 cm) had some degree of spleen size reduction (median 9 cm; range 2-18 cm). Eleven (37%) patients have achieved a minimum 50% decrease in palpable spleen size, thus qualifying them for a CI per IWG-MRT criteria, including three out of eight subjects (38%) who were previously treated with INCB018424.

[3] = tested on: patients with high- or intermediate-risk primary myelofibrosis (PMF) and post-PV or post-essential thrombocythemia (ET) myelofibrosis; assay: Phase I/II clinical trial of CYT387: anemia response / hemoglobin; format: in vivo, human
From the text: By “anemia response” is meant an increase in the patient's hemoglobin level or a patient who was transfusion dependent becoming transfusion independent. Desirably, a minimum increase in hemoglobin of 2.0 g/dL lasting a minimum of 8 weeks is achieved, which is the level of improvement specified in the International Working Group (IWG) consensus criteria. However, smaller, but still medically significant, increases in hemoglobin are also considered to be within the term “anemia response”.
as §1, with “CYT387 was administered orally (in a capsule without excipients) once daily in 28-day cycles.” left out
as §2
Anemia Response: The total anemia response rate was 63%. Of 22 subjects who were evaluable for anemia response (baseline Hgb<10 g/dL or red cell transfusion-dependent), nine subjects (41%) had achieved “Clinical Improvement (CI)” as per the International Working Group for Myeloproliferative Neoplasms Research and Treatment (IWG-MRT) criteria, including two of four subjects who were previously treated with INCB018424. An additional five subjects experienced a >50% reduction in transfusion requirement.
There is also a line for “anemia evaluable” patients which are patients who are considered anemic at baseline by IWG criteria. That is they have a baseline hgb of <10 g/dL or are transfusion dependent at baseline.

[4] = tested on: patients with high- or intermediate-risk primary myelofibrosis (PMF) and post-PV or post-essential thrombocythemia (ET) myelofibrosis; assay: Phase I/II clinical trial of CYT387: constitutional symptoms; format: in vivo, human; conditions: at last follow up
Protocol: as §1, §2
Constitutional symptoms: The proportion of patients with the following symptoms at baseline was as follows: fatigue (97%), pruritus (22%), night sweats (38%), cough (13%), bone pain (28%), and fever (16%). At last follow up, improvement (complete resolution; CR) in these symptoms was reported by 68% (16% CR), 86% (57% CR), 83% (75% CR), 75% (50% CR), 78% (44% CR), and 100% (100% CR), respectively.

[5] = tested on: patients with high- or intermediate-risk primary myelofibrosis (PMF) and post-PV or post-essential thrombocythemia (ET) myelofibrosis; assay: Phase I/II clinical trial of CYT387: toxicity; format: in vivo
Protocol: as §1, §2
To date, 36 subjects were evaluable for toxicity. At the highest dose level (400 mg/day), two of six subjects experienced dose limiting toxicity (DLT) (one each with asymptomatic grade three hyperlipasemia and grade three headache that were reversible upon holding drug); consequently, the maximum tolerated dose (MTD) was declared at 300 mg/day. In the dose-confirmation phase, subjects were started at one of two dose levels that were deemed clinically effective: 150 mg/day (n=15) and 300 mg/day (n=3). Thirty-five subjects were on active therapy at publication of the abstract: 100 mg/day (n=2), 150 mg/day (n=20), 300 mg/day (n=10), and 400 mg/day (n=3).

[6] = 30 evaluable subjects with splenomegaly at baseline
[7] = Previous Treatment with IMids (Pomalidomide, Thalidomide, Revlimid)
[8] = Previous Treatment with INCB018424
[9] = Previous Treatment with TG-101348
[10] = Previous Treatment with Unspecified JAK2
[11] = Previous Treatment with any JAK2
[12] = interim response by diagnosis: PET
[13] = interim response by diagnosis: PMF
[14] = interim response by diagnosis: PPV

Cc1cnc(Nc2ccc(OCCN3CCCC3)cc2)nc1Nc1cccc(S(=O)(=O)NC(C)(C)C)c1 [TG101348]
maximum tolerated dose (MTD) [1]: 680 mg/day

N#CCNC(=O)c1ccc(-c2ccnc(Nc3ccc(N4CCOCC4)cc3)n2)cc1 [CYT387, N-(cyanomethyl)-4-[2-[[4-(4-morpholinyl)phenyl]amino]-4-pyrimidinyl]-benzamide]
subjects with some degree of spleen size reduction ([2]; 29 of 30 evaluable subjects with splenomegaly at baseline (median 20 cm)): 97%
spleen size reduction, median [2, 6]: 9 cm
spleen size reduction, range [2, 6]: 2-18 cm
Responders, Spleen [2, 7]: Spleen: 6/11 = 54.5%
Responders, Spleen [2, 8]: Spleen: 3/10 = 30%
Responders, Spleen [2, 9]: Spleen: 1/4 = 25%
Responders, Spleen [2, 10]: Spleen: 1/3 = 33.3%
Responders, Spleen [2, 11]: Spleen: 5/17 = 29.4%
patients with minimum 50% decrease in palpable spleen size (CI per IWG-MRT) ([2]; eleven of 30 evaluable): 37%
Spleen Response/Evaluable [2, 12]: 7/19 (36.8%)
Spleen Response/Evaluable [2, 13]: 22/82 (26.8%)
Spleen Response/Evaluable [2, 14]: 11/33 (33.3%)
patients with minimum 50% decrease in palpable spleen size (CI per IWG-MRT), previously treated with INCB018424 ([2]; three out of eight subjects previously treated with INCB018424): 38%
effect on hemoglobin in transfusion dependent patients who respond (Tx responders) ([3]; FIG. 2, no longer receiving RBC transfusions): modest initial increase in hemoglobin that is sustained
Anemia response: % responders ([3]; Initial Dose 150 BID): 33%*
Anemia response: Responders (number) ([3]; Initial Dose 150 BID, 21 evaluable pts): 7
Anemia response: % responders ([3]; Initial Dose 150 QD): 50%
Anemia response: Responders (number) ([3]; Initial Dose 150 QD, 32 evaluable pts): 16
Anemia response: % responders ([3]; Initial Dose 300 QD): 54%
Anemia response: Responders (number) ([3]; Initial Dose 300 QD, 39 evaluable pts): 21
Responders, Anemia [3, 7]: Anemia: 9/14 = 64.3%
Responders, Anemia [3, 8]: Anemia: 4/7 = 57.1%
Responders, Anemia [3, 9]: Anemia: 3/4 = 75%
Responders, Anemia [3, 10]: Anemia: 2/3 = 66.7%
Responders, Anemia [3, 11]: Anemia: 9/14 = 64.3%
effect on hemoglobin levels ([3]; first 60 patients, FIG. 1 and 2): clear and sustained improvement in hemoglobin levels
Anemia Response/Evaluable [3, 12]: 10/18 (55.6%)
Anemia Response/Evaluable [3, 13]: 30/66 (45.5%)
Anemia Response/Evaluable [3, 14]: 6/14 (42.9%)
subjects achieving Clinical Improvement (CI) in anemia per IWG-MRT criteria ([3]; nine of 22 evaluable subjects (baseline Hgb<10 g/dL or red cell transfusion-dependent)): 41%
additional subjects with >50% reduction in transfusion requirement ([3]; of 22 evaluable subjects): five
total anemia response rate ([3]; oral once daily, 28-day cycles, 22 subjects evaluable for anemia response): 63%
subjects achieving anemia CI per IWG-MRT among those previously treated with INCB018424 ([3]; previously treated with INCB018424): two of four
complete resolution (CR) of bone pain [4]: 44%
complete resolution (CR) of cough [4]: 50%
complete resolution (CR) of fatigue [4]: 16%
complete resolution (CR) of fever [4]: 100%
complete resolution (CR) of night sweats [4]: 75%
complete resolution (CR) of pruritus [4]: 57%
improvement in bone pain [4]: 78%
improvement in cough [4]: 75%
improvement in fever [4]: 100%
improvement in night sweats [4]: 83%
improvement in pruritus [4]: 86%
improvement in fatigue ([4]; patients with symptom at baseline): 68%
Grade 3/4 thrombocytopenia ([5]; human, in vivo): 22%
Treatment-emergent grade 3/4 neutropenia ([5]; human, in vivo): not observed
grade 4 non-hematological toxicities ([5]; human, in vivo): No grade 4 non-hematological toxicities were observed
subjects experiencing dose limiting toxicity (DLT) ([5]; human, in vivo): two of six
subjects with first-dose effect (grade 1 lightheadedness and hypotension) ([5]; human, in vivo): 36%
time to resolution of first-dose effect ([5]; human, in vivo): 3 to 4 h
tolerability ([5]; human, in vivo): well tolerated
treatment-emergent grade 3 anemia ([5]; human, in vivo): 3%
maximum tolerated dose (MTD) ([5]; oral once daily): 300 mg/day
